From the supplement of paper PMC10307832

Columns and labels:
Assay in all cases: relative viability (nuclei count vs DMSO), 5 days (fraction); higher = more cells survive
[1] = compound: CCOC1=CC=CC=C1N=NC2=C(NN(C2=O)C3=NC(=CS3)C4=CC=CC=C4)C [BAM7] + Cc1cc(Nc2cc(N3CCN(C)CC3)nc(Sc3ccc(NC(=O)C4CC4)cc3)n2)n[nH]1 [Tozasertib] (partner 0.1 µM)
In short: (§1)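 Medians of duplicate plates are given as relative viability. That measure is the nuclei count in treated wells divided by the count in vehicle wells. Counts were taken on 4× images of lung cancer cell lines in 1536-well plates, 5 days after pin-tool dosing the day after seeding with one drug alone or a fixed anchor-drug dose plus five library-drug doses (not always all listed) in √10 steps.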

[2] = compound: CCn1c(-c2nonc2N)nc2c(C#CC(C)(C)O)ncc(OC[C@H]3CCCNC3)c21 + CS(=O)(=O)CCNCc1ccc(-c2ccc3ncnc(Nc4ccc(OCc5cccc(F)c5)c(Cl)c4)c3c2)o1 [Lapatinib] (partner 2 µM)
In short: as §1

[3] = compound: CCn1c(-c2nonc2N)nc2c(C#CC(C)(C)O)ncc(OC[C@H]3CCCNC3)c21 + CC(C)C[C@H](NC(=O)[C@H](Cc1ccccc1)NC(=O)c1cnccn1)B(O)O [Bortezomib] (partner 0.002 µM)
In short: as §1

[4] = compound: CCOC1=CC=CC=C1N=NC2=C(NN(C2=O)C3=NC(=CS3)C4=CC=CC=C4)C [BAM7] + N=C(N)NC(=N)NCCc1ccccc1 [Phenformin] (partner 250 µM)
In short: as §1

Cell Line	relative viability ([1]; first compound 0.5 µM)	relative viability ([1]; first compound 5 µM)	relative viability ([1]; first compound 15.81 µM)	relative viability ([1]; first compound 50 µM)	relative viability ([2]; first compound 0.01 µM)	relative viability ([2]; first compound 0.03162 µM)	relative viability ([2]; first compound 0.1 µM)	relative viability ([2]; first compound 0.3162 µM)	relative viability ([2]; first compound 1 µM)	relative viability ([3]; first compound 0.01 µM)	relative viability ([3]; first compound 0.03162 µM)	relative viability ([3]; first compound 0.1 µM)	relative viability ([3]; first compound 0.3162 µM)	relative viability ([3]; first compound 1 µM)	relative viability ([4]; first compound 0.5 µM)	relative viability ([4]; first compound 5 µM)	relative viability ([4]; first compound 15.81 µM)	relative viability ([4]; first compound 50 µM)
HCC-366	0.0637	0.0775	0.062	0.0627	0.967	1.02	0.953	1.03	1.09	0.989	1.05	0.913	1.01	1.12	0.576	0.605	0.668	0.594
HCC-827	0.405	0.433	0.395	0.388	0.175	0.219	0.191	0.173	0.217	1.07	1.04	1.09	0.988	1.02	0.397	0.373	0.453	0.362
HOP-62	0.417	0.413	0.337	0.308	1.11	1.05	1	0.993	0.87	0.623	0.615	0.803	0.376	0.922	0.668	0.867	0.664	0.714
LC-2-ad	0.501	0.424	0.466	0.451	0.993	1.01	0.906	0.975	0.977	0.986	0.993	1.03	0.977	0.968	0.538	0.55	0.582	0.591
LCLC-97TM1	0.207	0.442	0.261	0.172	–	0.854	1.06	0.663	1.27	0.756	0.383	0.794	0.459	0.522	0.45	0.443	0.43	0.473
LOU-NH91	0.667	0.702	0.674	0.689	0.802	0.681	0.717	0.652	0.618	0.57	0.344	0.481	0.448	0.47	0.689	0.795	0.66	0.66
LU99A	0.273	0.275	0.288	0.266	0.874	1.07	0.869	0.865	0.818	1.21	1.29	1.04	1.04	1.08	0.802	0.819	0.896	0.94
LXF-289	0.206	0.215	0.183	0.19	0.921	0.891	0.934	0.871	0.88	1	0.963	1	0.976	1.02	0.556	0.552	0.524	0.516
NCI-H23	0.245	0.367	0.288	0.256	1.07	1.05	1.14	1.17	0.776	0.974	1.06	0.913	0.861	1.13	0.816	0.76	0.86	0.856
NCI-H322M	0.481	0.474	0.523	0.467	0.562	0.608	0.394	0.614	0.524	1.21	1.18	1.26	1.19	1.19	0.77	0.805	0.806	0.799
NCI-H460	0.4	0.0975	0.123	0.131	0.949	1.14	1.02	0.862	0.775	1.01	1.26	1.13	1.04	1.12	0.521	0.573	0.513	0.534
NCI-H520	0.416	0.51	0.436	0.405	0.923	0.952	0.727	0.454	0.425	0.79	0.887	0.529	0.249	0.399	0.668	0.573	0.704	0.707
NCI-H596	1.11	0.936	0.789	0.9	0.935	0.954	0.92	0.901	0.986	1.02	0.956	0.969	1.38	0.999	0.751	0.804	0.705	0.811
NCI-H647	0.309	0.333	0.294	0.247	0.874	1.23	1.08	0.788	0.981	0.972	1.25	0.937	1.02	0.812	0.54	0.443	0.539	0.591
NCI-H650	0.803	0.861	0.702	0.796	0.733	0.838	0.783	0.753	0.741	0.679	0.604	0.759	0.758	0.635	0.443	0.506	0.499	0.495
NCI-H661	0.376	0.361	0.359	0.358	0.505	0.539	0.249	0.502	0.489	0.883	0.75	0.739	0.972	0.855	0.241	0.258	0.264	0.298
NCI-H727	0.496	0.599	0.555	0.52	0.796	0.856	0.593	0.762	0.66	0.782	0.747	0.999	0.613	0.791	0.42	–	0.576	0.603
NCI-H838	0.262	0.309	0.233	0.263	1.11	1.13	1.1	0.853	0.968	1.25	0.971	0.945	0.545	0.655	0.544	0.572	0.597	0.648

Cell Line	relative viability ([1]; first compound 0.5 µM)	relative viability ([1]; first compound 5 µM)	relative viability ([1]; first compound 15.81 µM)	relative viability ([1]; first compound 50 µM)	relative viability ([2]; first compound 0.01 µM)	relative viability ([2]; first compound 0.03162 µM)	relative viability ([2]; first compound 0.1 µM)	relative viability ([2]; first compound 0.3162 µM)	relative viability ([2]; first compound 1 µM)	relative viability ([3]; first compound 0.01 µM)	relative viability ([3]; first compound 0.03162 µM)	relative viability ([3]; first compound 0.1 µM)	relative viability ([3]; first compound 0.3162 µM)	relative viability ([3]; first compound 1 µM)	relative viability ([4]; first compound 0.5 µM)	relative viability ([4]; first compound 5 µM)	relative viability ([4]; first compound 15.81 µM)	relative viability ([4]; first compound 50 µM)
NCI-H1355	0.515	0.461	0.361	0.459	1.03	0.944	0.998	0.926	1.02	1.23	1.11	1.15	1.13	1.19	0.462	0.421	0.425	0.458
NCI-H1437	0.482	0.489	0.417	0.425	0.841	0.821	0.877	0.719	0.795	0.616	0.538	0.593	0.357	0.483	0.263	0.23	0.3	0.275
NCI-H1650	0.335	0.305	0.28	0.314	0.758	0.864	0.708	0.725	0.578	0.214	0.195	0.223	0.185	0.202	0.473	0.501	0.484	0.472
NCI-H1651	0.674	0.758	0.637	0.638	0.816	0.854	0.798	0.715	0.842	0.905	0.901	0.864	0.903	0.989	0.306	0.303	0.343	0.354
NCI-H1666	0.586	0.57	0.613	0.591	0.552	0.487	0.469	0.521	0.508	0.688	0.678	0.869	0.762	0.841	0.592	0.588	0.588	0.563
NCI-H1734	0.289	0.253	0.246	0.248	1.01	1.02	0.896	0.885	0.825	0.872	0.965	0.875	0.344	0.648	0.41	0.491	0.392	0.401
NCI-H1755	0.602	0.615	0.55	0.644	1.03	1.02	1.03	0.993	1.07	0.956	0.917	0.939	0.923	0.906	0.657	0.657	0.611	0.645
NCI-H1915	0.443	0.4	0.405	0.399	0.981	0.889	0.956	0.927	0.973	0.982	1.01	0.904	0.975	0.921	0.377	0.374	0.405	0.382
NCI-H1975	0.41	0.512	0.465	0.512	0.828	0.975	0.927	0.799	0.728	0.379	0.351	0.438	0.314	0.289	0.401	0.425	0.391	0.427
NCI-H1993	0.564	0.639	0.582	0.505	0.957	0.781	0.947	0.704	0.872	1.23	1.23	1.11	1.03	0.975	0.575	0.617	0.533	0.543
NCI-H2009	0.832	0.763	0.62	0.608	0.974	1.03	1.05	1.02	0.905	0.997	0.944	1.05	1.03	0.958	0.497	0.542	0.426	0.465
NCI-H2023	0.234	0.161	0.125	0.177	0.74	0.792	0.769	0.689	0.953	0.924	0.977	0.904	0.861	0.912	0.446	0.393	0.37	0.411
NCI-H2085	0.608	0.496	0.401	0.567	0.8	0.7	0.601	0.574	0.573	0.861	1.02	1.03	1.03	1.05	0.691	0.619	0.625	0.711
NCI-H2087	0.227	0.244	0.211	0.205	0.965	0.999	0.899	1.07	1.03	0.682	0.873	0.655	0.766	0.774	0.464	0.473	0.43	0.49
NCI-H2126	0.836	0.679	0.643	0.74	0.779	0.773	0.641	0.731	0.755	1.05	1.13	1.08	1.09	1.1	0.494	0.54	0.473	0.556
NCI-H2228	0.239	0.23	0.208	0.286	1.27	1.09	1.02	0.755	0.729	1.06	1.28	0.912	0.584	0.737	0.302	0.355	0.418	0.317
NCI-H2347	0.75	0.426	–	0.525	0.891	0.934	0.995	0.897	0.889	0.644	0.861	–	0.888	0.933	0.622	0.31	–	0.37
NCI-H2405	0.721	0.809	0.73	0.721	1.11	1.06	–	1.01	1.02	0.982	0.897	0.91	0.929	0.967	0.395	0.411	0.416	0.435
